In patent publication US20170156335A1, “SYSTEMS AND METHODS FOR RELEASING CHLORINE DIOXIDE” (priority 2014, published 2017):

System: Raoultella (Klebsiella) terrigena (R. terrigena, ATCC 33257)
Test: Anti-microbial activity test (AMA) in water bottles vs Raoultella terrigena
Format: cell-based
Settings: AWT018; without SC

CCOC(C)=O [EtOAc, Ethyl acetate]
antimicrobial potential of formulation additives: no antimicrobial potential
